Where “and” joins values, the source holds several entries; their conditions need not be identical. Equal values may be shown once. Read-outs that look alike come from different tables or passages of the source.
What was measured:
NLRP3-inflammasome = test: In vitro stimulation of porcine whole blood with LPS and ATP, IL-1β release; assay type: cell-based
Procedure: To confirm the ability of IZD334 to effectively attenuate porcine NLRP3-inflammasome signaling, we used a previously standardized study protocol. In short, porcine peripheral blood mononuclear cells (PBMCs) were isolated from healthy porcine animals. Whole blood samples and isolated PBMCs were stimulated with lipopolysaccharide (LPS) (1 µg/mL, L4516, Sigma-Aldrich, St. Louis, MO, USA) and increasing concentrations of IZD334. After three h of incubation, 5 mM adenosine triphosphate (ATP) (A1852, Sigma-Aldrich, St. Louis, MO, USA) was added for 1 h to induce inflammasome activation. IL-1β release was measured in the supernatant with a Luminex Immunoasssay specific for porcine IL-1β (EPX01A-66048-901, ProcartaTM Simplex, eBioscience, ThermoFisher, San Diego, CA, USA).
In short, porcine peripheral blood mononuclear cells (PBMCs) were isolated from healthy porcine animals using Ficoll density-gradient centrifugation. Whole blood samples and isolated PBMCs were stimulated with lipopolysaccharide (LPS) (1 µg/mL, L4516, Sigma-Aldrich, St. Louis, MO, USA) and increasing concentrations of IZD334 (top concentration of 10 µM with an 8-point half-log dilution). After three h of incubation, 5 mM adenosine triphosphate (ATP) (A1852, Sigma-Aldrich, St. Louis, MO, USA) was added for 1 h to induce inflammasome activation. IL-1β release was measured in the supernatant with a Luminex Immunoasssay specific for porcine IL-1β (ProcartaTM Simplex, eBioscience, San Diego, CA, USA).

[1] = Pharmacokinetics study in healthy pigs; assay type: in vivo
Procedure: Healthy female pigs (n = 3) were given intravenous (IV) treatment with IZD334 (3 mg/kg) via a 30 min infusion, and blood was collected at multiple timepoints and analyzed to determine pharmacokinetics. After a wash-out period of 3 days, the pigs received an oral dose (10 mg/kg), and plasma was again collected and analyzed.
(§1) In vivo IZD334 concentrations were measured in plasma samples using mass-spectrometry. IZD334 content was quantified using positive ionization mode and multiple reaction monitoring on a Sciex API 5500 Mass spectrometer (MRM transition: 392.0 > 176.1).
At multiple time points (0.033, 0.083, 0.17, 0.25, 0.50, 1.0, 2.0, 3.0, 4.0, 6.0, 8.0, 12.0, 24.0 h) after dosing, plasma was collected by whole-blood centrifugation at 1850× g, and samples were immediately stored to determine pharmacokinetics. After a wash-out period of 3 days, the pigs received an oral dose (10 mg/kg), and plasma was collected again at multiple time points (0.25, 0.50, 0.75, 1.0, 2.0, 3.0, 4.0, 6.0, 8.0, 12.0, 24.0 h) for pharmacokinetic purposes. Samples were sent to Sygnature Discovery (Nottingham, United Kingdom) to determine circulating levels of IZD334.
The volume of distribution at steady state (Vdss) is defined as the total concentration of IZD334 in the entire body divided by IZD334 plasma concentration. Drug clearance (Cl) was calculated by dividing the total administered dose with the area under the curve. Maximal concentration (Cmax) was obtained by calculating the mean of the highest concentrations of the separate pigs. Bioavailability (F%) was calculated using the following equation: (100 ∗ ((area under the curve oral dose × IV dose)/(area under the curve IV dose × oral dose))).

[2] = test system: pig model of myocardial infarction; test: In vivo MI study: cardiac volumes and function by cardiac magnetic resonance; design: species or system pigs; settings: CMR, 10 mg/kg IV loading dose, 7 days after MI
Procedure: (§2) Oral treatment was continued for six days. […] Animals were sacrificed by exsanguination under anesthesia.
Animals were placed on the CMR table in a supine position, under continuous sedation as described above. Steady-state free precession (SSFP) short axis images from the left ventricle (LV) base through the LV apex were used for the quantification of LV volumes, ejection fraction (EF), and mass. Imaging was performed using a respiratory-corrected, cardiac-gated SSFP in sequence. CMR images were anonymized and analyzed offline using MedisSuite (Medis Medical Imaging Systems, version 3.1, Leiden, The Netherlands).

[3] = IZD334 plasma concentrations in pigs subjected to MI; assay type: in vivo
Procedure: as §2, §1

[4] = test system: pig model of myocardial infarction; settings: for 0 Min HR (bpm) / 30 Min MAP (mmHg) / 60 Min HR (bpm) / 90 Min MAP (mmHg) / 120 Min HR (bpm) / 150 Min MAP (mmHg): time after induction of MI
[5] = test system: pig model of myocardial infarction; test: In vivo MI study: infarct size by Evans Blue TTC double staining; settings: 10 mg/kg IV loading dose, 7 days after MI
[6] = healthy pigs n = 3, PO 10 mg/kg
[7] = then 1 mg/kg oral once daily, n = 6
[8] = then 3 mg/kg oral once daily, n = 7
[9] = then 10 mg/kg oral once daily, n = 7
[10] = then 3 mg/kg oral once daily, n = 6

CCN1CCC(S(=O)(=O)[N-]C(=O)Nc2c3c(cc4c2CCC4)CCC3)CC1.[K+] [IZD334]
performance in whole blood assay compared with MCC950 (NLRP3-inflammasome; porcine whole blood assay): performs as well as MCC950
IC50 (NLRP3-inflammasome; porcine whole blood, LPS 1 µg/mL 3 h, then 5 mM ATP 1 h, read-out: half maximal inhibitory concentration (IC50), IL-1β release): 350 nM
LogIC50, whole blood stimulation (NLRP3-inflammasome; porcine whole blood, LPS + ATP, basis of log not printed (fits nM)): 2.545
AUC0-inf (ng.h/mL) ([1]; healthy pigs n = 3, IV 3 mg/kg): 27,786 ng.h/mL
Cl ([1]; healthy pigs n = 3, IV 3 mg/kg): 1.8 mL/min/kg
MRT0-inf ([1]; healthy pigs n = 3, IV 3 mg/kg): 5.3 h
Vdss ([1]; healthy pigs n = 3, IV 3 mg/kg): 0.58 L/kg
T1/2 ([1]; healthy pigs n = 3, IV 3 mg/kg, 30 min infusion): 3.9 h
AUC0-inf (ng.h/mL) [1, 6]: 86,337 ng.h/mL
Cmax (ng/mL) [1, 6]: 12,116 ng/mL
F% (bioavailability) ([1]; healthy pigs n = 3, PO 10 mg/kg versus IV 3 mg/kg): 93%
time that plasma concentrations sufficient for effective inhibition were maintained ([1]; healthy pigs, IV 3 mg/kg, based on extrapolation of in vitro results): 24 h
circulating levels 24 h after compound administration ([1]; healthy pigs, PO 10 mg/kg): adequate circulating levels
EDV [2, 7]: 150 ± 26 mL and 149.6 ± 26.2 mL
EF% [2, 7]: 49.9 ± 6.1%
ESV [2, 7]: 72 ± 19 mL and 71.5 ± 18.7 mL
EDV [2, 8]: 151 ± 8 mL and 151.4 ± 7.6 mL
EF% [2, 8]: 42.7 ± 3.8%
ESV [2, 8]: 87 ± 8 mL and 86.8 ± 8.2 mL
EDV [2, 9]: 144 ± 22 mL and 144.0 ± 22.0 mL
EF% [2, 9]: 44.9 ± 6.4%
ESV [2, 9]: 80 ± 19 mL and 80.0 ± 18.9 mL
Concentration (ng/mL) Mean ([3]; 1 mg/kg group (10 mg/kg IV loading dose), Reperfusion + 4 h, n = 6): 13,192 ng/mL
Concentration (ng/mL) Mean ([3]; 1 mg/kg oral once daily group, Day 1, n = 6): 1434 ng/mL
Concentration (ng/mL) Mean ([3]; 1 mg/kg oral once daily group, Day 2, n = 6): 795 ng/mL
Concentration (ng/mL) Mean ([3]; 1 mg/kg oral once daily group, Day 3, n = 6): 555 ng/mL
Concentration (ng/mL) Mean ([3]; 1 mg/kg oral once daily group, Day 7, n = 6): 44 ng/mL
Concentration (ng/mL) Mean ([3]; 3 mg/kg group (10 mg/kg IV loading dose), Reperfusion + 4 h, n = 7): 11,992 ng/mL
Concentration (ng/mL) Mean ([3]; 3 mg/kg oral once daily group, Day 1, n = 7): 2090 ng/mL
Concentration (ng/mL) Mean ([3]; 3 mg/kg oral once daily group, Day 2, n = 7): 1501 ng/mL
Concentration (ng/mL) Mean ([3]; 3 mg/kg oral once daily group, Day 3, n = 7): 1190 ng/mL
Concentration (ng/mL) Mean ([3]; 3 mg/kg oral once daily group, Day 7, n = 7): 120 ng/mL
Concentration (ng/mL) Mean ([3]; 10 mg/kg group (10 mg/kg IV loading dose), Reperfusion + 4, n = 7): 12,312 ng/mL
Concentration (ng/mL) Mean ([3]; 10 mg/kg oral once daily group, Day 1, n = 7): 4522 ng/mL
Concentration (ng/mL) Mean ([3]; 10 mg/kg oral once daily group, Day 2, n = 7): 4213 ng/mL
Concentration (ng/mL) Mean ([3]; 10 mg/kg oral once daily group, Day 3, n = 7): 3887 ng/mL
Concentration (ng/mL) Mean ([3]; 10 mg/kg oral once daily group, Day 7, n = 7): 233 ng/mL
0 Min HR (bpm) ([4]; 1 mg/kg group, n = 6): 70 ± 12 bpm
30 Min MAP (mmHg) ([4]; 1 mg/kg group, n = 6): 85 ± 7 mmHg
60 Min HR (bpm) ([4]; 1 mg/kg group, n = 6): 68 ± 9 bpm
90 Min MAP (mmHg) ([4]; 1 mg/kg group, n = 6): 71 ± 12 mmHg
120 Min HR (bpm) ([4]; 1 mg/kg group, n = 6): 67 ± 8 bpm
150 Min MAP (mmHg) ([4]; 1 mg/kg group, n = 6): 79 ± 11 mmHg
0 Min HR (bpm) ([4]; 3 mg/kg group, n = 7): 74 ± 4 bpm
30 Min MAP (mmHg) ([4]; 3 mg/kg group, n = 7): 74 ± 13 mmHg
60 Min HR (bpm) ([4]; 3 mg/kg group, n = 7): 72 ± 11 bpm
90 Min MAP (mmHg) ([4]; 3 mg/kg group, n = 7): 58 ± 20 mmHg
120 Min HR (bpm) ([4]; 3 mg/kg group, n = 7): 61 ± 7 bpm
150 Min MAP (mmHg) ([4]; 3 mg/kg group, n = 7): 70 ± 23 mmHg
0 Min HR (bpm) ([4]; 10 mg/kg group, n = 7): 73 ± 11 bpm
30 Min MAP (mmHg) ([4]; 10 mg/kg group, n = 7): 72 ± 12 mmHg
60 Min HR (bpm) ([4]; 10 mg/kg group, n = 7): 70 ± 11 bpm
90 Min MAP (mmHg) ([4]; 10 mg/kg group, n = 7): 56 ± 19 mmHg
120 Min HR (bpm) ([4]; 10 mg/kg group, n = 7): 62 ± 7 bpm
150 Min MAP (mmHg) ([4]; 10 mg/kg group, n = 7): 62 ± 15 mmHg
Heart rate and mean arterial blood pressure versus placebo ([4]; first 2.5 h after induction of MI and subsequent compound administration, all dose groups): similar
pigs that died one day after infarct induction ([4]; low-dose (1 mg/kg) group, presumably due to late VF, also one animal in the placebo group): one animal
AAR/LV ± SD [5, 7]: 23.5 ± 3.2%
IS/AAR ± SD [5, 7]: 75.5 ± 7.3% and 75.5%
IS/LV ± SD [5, 7]: 17.7 ± 6.3%
AAR/LV ± SD [5, 10]: 26.0 ± 1.9%
IS/AAR ± SD [5, 10]: 80.3 ± 3.9%
IS/LV ± SD [5, 8]: 20.5 ± 2.2%
AAR/LV ± SD [5, 9]: 26.4 ± 6.6%
IS/AAR ± SD [5, 9]: 78.2 ± 8.0% and 78.2%
IS/LV ± SD [5, 9]: 19.3 ± 2.9%

From paper PMC9775177, “NLRP3-Inflammasome Inhibition with IZD334 Does Not Reduce Cardiac Damage in a Pig Model of Myocardial Infarction” (Biomedicines, 2022)
